From patent US8853359B2, “Endokinin C/D-derived peptides” (University of Miyazaki, priority 2009, dated 2014)
Ends that are not written are not given here.

Experiments:
[1] = tested on: substance P-induced scratching behavior; test: substance P-induced scratching behavior after intrathecal pre-administration of test peptide; format: in vivo, rat
Method: In Example 1, 10^−3M (10 nmol/10 μl) EKC/D or D-EKC/D (1), (2) or (3) was administered to intrathecally catheterized rats via catheters. After the predetermined time periods denoted on the horizontal axis in FIG. 1, the numbers of scratching events (scratching behavior) induced by intrathecal administration of 10^−3M (10 nmol/10 μl) substance P (hereafter, referred to as “SP”) were determined. Here, the expression “10^−3M (10 nmol/10 μl) EKC/D or D-EKC/D (1), (2), or (3) was administered” refers to a situation in which 10 μl in total of a solution (that is, 10^−3M solution) containing 10 nmol of EKC/D or D-EKC/D (1), (2), or (3) was all administered. The expression, “ . . . administration of 10^−3M substance P (10 nmol/10 μl)” refers to a situation in which 10 μl in total of a solution (that is, 10^−3M solution) containing 10 nmol of the substance was all administered. The same similarly applies below.
Meanwhile, saline (10 μl) was intrathecally administered to intrathecally catheterized rats via catheters and then, after 30 minutes, 10^−3M SP (10 nmol/10 μl) was intrathecally administered to the rats. The number of the thus induced scratching events was determined to be the number of scratching events in the control group. The control group is denoted with saline-4-SP in FIG. 1.
The vertical axis of the graph in FIG. 1 indicates changes in the numbers of scratching events (represented by relative values) due to administration of 10^−3M EKC/D or D-EKC/D (1), (2), or (3) when the number of scratching events (of untreated rats in a control group) induced by intrathecal administration of 10^−3M substance P was determined to be 100%. Meanwhile, the horizontal axis indicates the intervals between the administration of EKC/D, D-EKC/D (1), (2), or (3) and 10^−3M substance P. […]
The test was conducted with procedures similar to those in Example 1, except for 4 hours of interval between the administration of each test peptide and the administration of substance P. The concentration of each test peptide and that of substance P for administration were determined to be 10^−3M (10 nmol/10 μl), similarly to Example 1. The number of scratching events in the control group was determined with procedures similar to those in Example 1, such that substance P was administered at 30 minutes after administration of saline (10 μl) and then the number was determined.

[2] = tested on: carrageenan-induced inflammation; test: carrageenan-induced increase in paw size, EKC/D injected 1 hour after carrageenan; format: in vivo, rat
Method: The vertical axis of the graph in FIG. 4 indicates increases (%) in paw size and the horizontal axis indicates the time after administration of saline (100 μl: saline) or EKC/D with “minutes,” thereby showing the time course changes of anti-inflammatory effects of EKC/D administration on carrageenan-induced inflammation. The paw size before carrageenan administration was determined to be 100%. Paw size was increased by about 50% (saline) as measured using a paw size meter at 1 hour after carrageenan injection. This state continued for about 60 minutes (saline). […] When 10^−3M EKC/D (100 nmol/100 μl) was injected, paw size had decreased to about 40% at 10 minutes after, to about 20% at 30 minutes after, and to about 40% at 50 minutes after injection.

[3] = tested on: carrageenan-induced thermal hyperalgesia; test: carrageenan-induced thermal hyperalgesia (withdrawal latency), EKC/D injected 1 hour after carrageenan; format: in vivo, rat
Source text: Intraplantar injection of carrageenan induces thermal hyperalgesia accompanying inflammation. To examine induction of thermal hyperalgesia, noxious thermal stimulation was applied to plantar using infrared rays. It can be said that thermal hyperalgesia takes place when the latency period of the withdrawal response becomes shorter than that for untreated rats. In FIG. 5, the vertical axis of the graph indicates the latency period in seconds and the horizontal axis of the graph indicates the time after injection of saline or EKC/D in minutes. The latency period in untreated rats (control) after noxious thermal stimulation was about 21 seconds. When saline (100 μl) was injected at 1 hour after carrageenan injection, the latency period was about 13 seconds. […] This state was sustained for 60 minutes (saline). […] When 10^−5M (1 nmol/100 μl) and 10^−6M ([…]) EKC/D were injected, the latency period before rats responded to noxious thermal stimulation was about 17 seconds, which was longer than that in the case of treatment with saline (EKC/D10^−5 M and EKC/D 10^−6 M).

[4] = tested on: scratching behavior and thermal hyperalgesia induced by SP or EKA/B; conditions: Non-patent document 3, cited from earlier work
[5] = tested on: formalin-induced pain behavior; test: formalin-induced pain behavior (flinching) after intrathecal pre-administration of peptide; format: in vivo, rat
Method: In Example 5, 10^−3M (10 nmol/10 μl) D-EKC/D (3), (5), or (7), Spantide I, or saline (10 μl) was administered to intrathecally catheterized rats via catheters and then 4 hours later, 50 μl of 2% formalin was administered subcutaneously to hind paws of rats. The number of flinching (pain behavior) was determined for 60 minutes after formalin administration, so that the degree of pain could be evaluated. During the 10-minute period after formalin administration (referred to as phase I), pain behavior was measured once every 2 minutes (1 minute per measurement). During the period from 10 minutes to 60 minutes after formalin administration (referred to as phase II), pain behavior was measured once every 5 minutes (1 minute per measurement), so that the degree of pain could be evaluated. During phase I, behavior (phasic pain) resulting from chemical stimulation accompanying formalin administration was observed. During phase II, tonic pain following the phasic pain was observed.
The horizontal axis indicates time (minutes) after formalin administration and the vertical axis indicates the measured number of pain behavior per minute.

[6] = tested on: carrageenan-induced inflammation; test: carrageenan-induced increase in paw size after intrathecal pre-administration of peptide; format: in vivo, rat
Method: (§1) In Example 6, 10^−3M (10 nmol/10 μl) D-EKC/D (3), (5), or (7), Spantide I, or saline (10 μl) was administered to intrathecally catheterized rats via catheters. Four hours later, 100 μl of 2% carrageenan (2 mg/100 μl) was subcutaneously administered to rat plantar.
Paw size was measured with time for 60 minutes after carrageenan administration. The paw size (control) before carrageenan administration was designated as the basal level, and the increases in paw size were then calculated.

[7] = tested on: carrageenan-induced thermal hyperalgesia; test: withdrawal latency to noxious thermal stimulation after carrageenan, intrathecal pre-administration of peptide; format: in vivo, rat; conditions: 10^-3M (10 nmol/10 μl) peptide intrathecal; 2% carrageenan 4 hours later; FIG. 9B
Method: as §1
Meanwhile, noxious thermal stimulation was applied to paw plantar using infrared rays at 10-minute intervals after carrageenan administration. The time (latency period) required for withdrawal response to take place was measured. The latency period before untreated rats following noxious thermal stimulation was designated as the control latency period.

With “Ala-Tyr-Gln-Leu-Glu-His-Thr-Phe-Gln-Gly-Leu-Leu-NH2 (AYQLEHTFQGLL-NH2; listed as Homo sapiens) [EKC/D]” the “number of scratching events induced by substance P, relative to control group (saline+SP = 100%)” value ([1]; 10^-3M (10 nmol/10 μl) peptide intrathecal, 10^-3M SP 30 minutes after peptide, FIG. 1) was “about 60%”, the “duration of suppressive effects on substance P-induced scratching behavior” value ([1]; 10^-3M peptide intrathecal, 10^-3M SP) was no more than 1 h and the “number of scratching events induced by substance P, relative to control group” value ([1]; 10^-3M peptide intrathecal, SP 1 hour after peptide, FIG. 1) was “restored 1 hour later to the same degree as that for the control group”. The “increases in paw size accompanying inflammation due to carrageenan, overall” value ([2]; 10^-3M EKC/D (100 nmol/100 μl)) was “significantly suppressed”, the “increase in paw size” value ([2]; 10^-3M EKC/D (100 nmol/100 μl), 10 minutes after injection, saline about 50%) was “about 40%” and the “increase in paw size” value ([2]; 10^-3M EKC/D (100 nmol/100 μl), 30 minutes after injection) was “about 20%”. For the same substance, the “increase in paw size” value ([2]; 10^-3M EKC/D (100 nmol/100 μl), 50 minutes after injection) was “about 40%”, the “anti-inflammatory effects, overall” value ([2]; 10^-4M EKC/D (10 nmol/100 μl)) was “weak anti-inflammatory effects” and the “increase in paw size” value ([2]; 10^-4M EKC/D (10 nmol/100 μl), 30 minutes after injection) was 40%. For the same substance, the paw size ([2]; 10^-4M EKC/D (10 nmol/100 μl), 60 minutes after injection) was “almost at a normal level”, the “effect on paw size” value ([2]; 10^-5M EKC/D (1 nmol/100 μl)) was “No clear effects” and the “effect on paw size” value ([2]; 10^-6M EKC/D (100 pmol/100 μl)) was “No clear effects”. The “latency period following noxious thermal stimulation” value ([3]; 10^-3M EKC/D (100 nmol/100 μl), untreated about 21 seconds, saline about 13 seconds) was “almost the same as that in the case of untreated rats”, the “latency period following noxious thermal stimulation” value ([3]; 10^-4M EKC/D (10 nmol/100 μl)) was “almost the same tendency as that in the case of 10^−3M EKC/D” and the “latency period following noxious thermal stimulation” value ([3]; 10^-5M EKC/D (1 nmol/100 μl)) was “about 17 seconds”. The “latency period following noxious thermal stimulation” value ([3]; 10^-6M EKC/D (100 μmol/100 μl)) was “about 17 seconds”, the “latency period following noxious thermal stimulation” value ([3]; 10^-7M EKC/D (10 pmol/100 μl)) was “almost the same as that in the case of saline” and the SP-induced hyperalgesia ([4]; 5 minutes after administration of EKC/D) was “suppressed”. For the same substance, the “induction of scratching behavior or thermal hyperalgesia by the peptide itself” value ([4]; intrathecal administration to a rat) was “does not induce” and the “scratching behavior and thermal hyperalgesia induced by administration of SP or EKA/B” value ([4]; pre-administration of the peptide, intrathecal) was “suppresses”.

For “Glu-His-Thr-Phe-Gln-DTrp-Leu-Leu-NH2 (EHTFQXLL; HELM PEPTIDE1{E.H.T.F.Q.[dW].L.L.[am]}$$$$V2.0; N-terminus assumed; SMILES CC(C)C[C@H](NC(=O)[C@H](CC(C)C)NC(=O)[C@@H](Cc1c[nH]c2ccccc12)NC(=O)[C@H](CCC(N)=O)NC(=O)[C@H](Cc1ccccc1)NC(=O)[C@@H](NC(=O)[C@H](Cc1c[nH]cn1)NC(=O)[C@@H](N)CCC(=O)O)[C@@H](C)O)C(N)=O) [D-EKC/D (5)]”, the “scratching behavior induced by substance P” value ([1]; Example 2, FIG. 2, 10^-3M peptide, SP 4 hours after peptide, control about 380 scratching) was “almost never induced”, the “suppressive effects on scratching as administration interval is prolonged” value ([1]; Example 2, FIG. 2, 10^-3M peptide, interval 8 hours and then 14 hours) was “gradually attenuated” and the “scratching behavior induced by substance P / suppressive effects” value ([1]; Example 3, FIG. 3, 10^-3M peptide, SP 4 hours after peptide, control 380 scratching) was “attenuated”. The “numbers of pain behavior during phase I” value ([5]; 10^-3M (10 nmol/10 μl) peptide intrathecal, 2% formalin 4 hours later, 0-10 minutes after formalin) was “significantly decreased”, the “numbers of pain behavior during phase II” value ([5]; 10^-3M (10 nmol/10 μl) peptide intrathecal, 2% formalin 4 hours later, 10-60 minutes after formalin) was “significantly decreased” and the “suppressing effects on formalin-induced pain behavior compared with Spantide I” value ([5]; 10^-3M intrathecal, formalin 4 hours later) was “sustained longer compared with the effects of Spantide I”. For the same substance, the “rate of increase of paw sizes” value ([6]; 10^-3M (10 nmol/10 μl) peptide intrathecal, 2% carrageenan 4 hours later, FIG. 9A) was “significant decreases”, the “effects on paw size and withdrawal time compared with Spantide I” value ([6]; 10^-3M intrathecal, carrageenan 4 hours later) was “sustained to a greater extent than the effects of Spantide I” and the “withdrawal time (latency period)” value [7] was “significant increases”.
